The target in one data set is T1, androgen receptor (AR) (Homo sapiens, UniProt P10275).
T1 sequence (P10275 1-920 T878A): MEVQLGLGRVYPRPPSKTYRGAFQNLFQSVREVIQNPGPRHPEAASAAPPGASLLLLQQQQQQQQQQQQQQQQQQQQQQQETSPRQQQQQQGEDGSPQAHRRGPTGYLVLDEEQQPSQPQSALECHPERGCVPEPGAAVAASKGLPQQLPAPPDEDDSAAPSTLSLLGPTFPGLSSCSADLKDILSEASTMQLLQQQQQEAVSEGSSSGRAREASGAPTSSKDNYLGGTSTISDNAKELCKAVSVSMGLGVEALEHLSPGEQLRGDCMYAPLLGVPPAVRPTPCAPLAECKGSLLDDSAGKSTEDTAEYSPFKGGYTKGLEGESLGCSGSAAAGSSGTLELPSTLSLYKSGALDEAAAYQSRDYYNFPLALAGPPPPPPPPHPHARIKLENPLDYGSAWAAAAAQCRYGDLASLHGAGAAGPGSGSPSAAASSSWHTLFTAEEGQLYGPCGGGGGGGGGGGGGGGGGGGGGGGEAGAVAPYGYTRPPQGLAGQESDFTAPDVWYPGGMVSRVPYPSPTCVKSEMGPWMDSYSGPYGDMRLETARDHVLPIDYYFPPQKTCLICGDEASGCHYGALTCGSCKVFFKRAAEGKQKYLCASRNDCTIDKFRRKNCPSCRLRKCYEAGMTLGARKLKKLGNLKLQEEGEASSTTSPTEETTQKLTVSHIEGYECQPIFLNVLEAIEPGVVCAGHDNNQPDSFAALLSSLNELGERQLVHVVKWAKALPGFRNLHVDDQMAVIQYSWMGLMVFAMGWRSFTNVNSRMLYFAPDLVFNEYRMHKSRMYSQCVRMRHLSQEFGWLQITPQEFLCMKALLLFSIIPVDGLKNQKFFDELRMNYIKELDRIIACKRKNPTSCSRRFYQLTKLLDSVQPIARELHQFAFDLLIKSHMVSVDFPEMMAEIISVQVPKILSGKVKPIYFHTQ
The data set is described as follows: Androgen-induced PSA-luciferase assay, Luciferase Assay B (cells stably expressing ARR2PB or PSA-firefly luciferase reporter, 384-well). The data set is classed as cell-based. The conditions noted are these: Luciferase Assay B (Compounds A186-A219 and A221-A245); stable luciferase reporter cells, 1 h pretreatment, R1881 24 h, serum-free; read-out: PSA-Luc IC50 Range. (Reporter assays use an easily measured gene product as a stand-in for the process of interest.)

Data set [1] is described as follows: Microsomal stability assay, liver microsome half-life (human). It is filed as in vitro ADME. The settings on record: pH 7.4; human liver microsomes 0.5 mg/mL + NADPH, 1 μM compound, 37° C; read-out: Liver microsome + NADPH T½ (min) Human.
Data set [2] is described as follows: Microsomal stability assay, liver microsome half-life (monkey). The data set is classed as in vitro ADME. The settings on record: pH 7.4; monkey liver microsomes 0.5 mg/mL + NADPH, 1 μM compound, 37° C; read-out: Liver microsome + NADPH T½ (min) Monkey. For orientation: Liver microsomes are a subcellular fraction often used to study metabolism.
A short description of data set [3]: Microsomal stability assay, liver microsome half-life (mouse). The data set is classed as in vitro ADME. The conditions noted are these: pH 7.4; mouse liver microsomes 0.5 mg/mL + NADPH, 1 μM compound, 37° C; read-out: Liver microsome + NADPH T½ (min) Mouse.
Data set [4] is described as follows: Microsomal stability assay, liver microsome half-life (dog). The conditions noted are these: pH 7.4; dog liver microsomes 0.5 mg/mL + NADPH, 1 μM compound, 37° C; read-out: Liver microsome + NADPH T½ (min) Dog. It is filed as in vitro ADME.
Data set [5] in a line: Microsomal stability assay, liver microsome half-life (rat). The data set is classed as in vitro ADME. The settings on record: pH 7.4; rat liver microsomes 0.5 mg/mL + NADPH, 1 μM compound, 37° C; read-out: Liver microsome + NADPH T½ (min) Rat.

`[2H]C([2H])([2H])N(c1ccc(-c2ccc3nc(NS(C)(=O)=O)cnc3c2)cc1)c1cc(Cl)c(OC2CC2)c(C#N)c1` [Compound A187]: at androgen receptor (AR), the IC50 lay within 500 to 2000 nM. The half-life at 1 μM in data set [1], in data set [2], in data set [3], in data set [4] and in data set [5] was greater than 120 min each time.

`CS(=O)(=O)Nc1cnc2cc(-c3ccc(Oc4cc(C#N)c(OC5CC5)c(C#N)c4)cc3)ccc2n1` [Compound A198]: the 50% inhibitory concentration (IC50) at androgen receptor (AR) was less than 500 nM. Further, the half-life at 1 μM in data set [1], in data set [2], in data set [3], in data set [4] and in data set [5] was greater than 120 min in each case.

With `CS(=O)(=O)Nc1cnc2cc(-c3ccc(N(CC(F)(F)F)c4cc(F)c(OC5CC5)c(C#N)c4)cc3)ccc2n1` [Compound A199], on androgen receptor (AR), the IC50 is less than 500 nM. Moreover, the half-life at 1 μM in data set [1], in data set [2], in data set [3], in data set [4] and in data set [5] was greater than 120 min in each case.

Consider `CN(c1ccc(-c2ccc3nc(NS(C)(=O)=O)cnc3c2)cc1)c1cc(F)c(OC2CC2)c(C#N)c1` [Compound A208], for which, at androgen receptor (AR), the IC50 is less than 500 nM. Moreover, the half-life at 1 μM in data set [1], in data set [2], in data set [3], in data set [4] and in data set [5] was greater than 120 min in each case.

Take `CS(=O)(=O)Nc1nccc(COc2ccc(N(CC(F)(F)F)c3cc(Cl)c(OC4CC4)c(C#N)c3)cc2)n1` [Compound A202]: the IC50 at androgen receptor (AR) is less than 500 nM. In addition, the half-life at 1 μM in data set [1], in data set [2], in data set [3], in data set [4] and in data set [5] was greater than 120 min throughout.

Take `N#Cc1cc(Oc2ccc(-c3ccc4nc(N5CC(O)C5)cnc4c3)cc2)cc(Cl)c1OC1CC1` [Compound A205]: at androgen receptor (AR), the IC50 was in the range of 500 to 2000 nM. Also, the half-life at 1 μM in data set [1], in data set [2], in data set [3], in data set [4] and in data set [5] was greater than 120 min each time.

As for `CS(=O)(=O)Nc1cnc2cc(-c3ccc(N(CC(F)(F)F)c4cnc(OC5CC5)c(C#N)c4)cc3)ccc2n1` [Compound A203, N-(6-(4-((5-cyano-6-cyclopropoxypyridin-3-yl)(2,2,2-trifluoroethyl)amino)phenyl)quinoxalin-2-yl)methanesulfonamide], the 50% inhibitory concentration (IC50) at androgen receptor (AR) was less than 500 nM. In addition, the half-life at 1 μM in data set [1], in data set [2], in data set [3], in data set [4] and in data set [5] was greater than 120 min in each case.

As a reminder, the IC50 is the concentration at which inhibition is half-maximal.

For the origin of these results see US20230373934A1, “ANDROGEN RECEPTOR MODULATORS AND METHODS FOR THEIR USE” (ESSA Pharma, Inc., priority 2022, published 2023).
